Common to all, as to format: binding
Experiment [1] concerns the target T1, peptides with two phosphate groups with a distance of (i, i+4) or (i, i+6) (Homo sapiens, UniProt P10636).
T1 construct: made in house; host or cells: chemical solid-phase synthesis
Nature of the experiment: Fluorescence titration of compound 1 with (i, i+4) or (i, i+6) diphosphorylated tau peptides. The protocol: (§1) The peptide recognizing abilities of compounds 1 and 2 were evaluated by measuring fluorescence spectra. Measurement was performed under conditions of [compound 1 or 2=10 μM, an optical path length of 1 cm, pH 7.2, 50 mM HEPES buffer and 25° C. The excitation wavelength was λex=323 nm, Ex/Em=15 nm/10 nm, except λex=323 nm, Ex/Em=5 nm/10 nm for only Tau210-2202P, for compound 1, and λex=305 nm, Ex/Em=10 nm/12 nm for compound 2. […] When the peptide was excessively added, this change reached saturation. The association constants calculated from the fluorescence changes were in the order of approx. 10^5 M^−1. […] When the fluorescence spectra of compounds 1 and 2 themselves were compared, compound 2 emitted much weaker fluorescence on the short wavelength side and stronger fluorescence on the long wavelength side than compound 1 (FIG. 8B) ([compound 1 or 2=10 μM, λex=305 nm, Ex/Em=10 nm/12 nm, 50 mM HEPES buffer, 1 cm cell, 25° C.).

In another experiment the target is T2, Tau204-2162P (i, i+4) (Homo sapiens, UniProt P10636).
T2 construct: made in house; host or cells: chemical solid-phase synthesis
Nature of the experiment: Fluorescence titration of compound 1 with Tau204-2162P (i, i+4). The protocol:
as §1

Experiment [2] has as its target T3, Tau204-2163P (Homo sapiens, UniProt P10636).
T3 construct: made in house; host or cells: chemical solid-phase synthesis
Nature of the experiment: ITC measurement of affinity, Tau204-2163P. As to conditions: compound 1 50 μM, peptide 1 mM, 25° C., pH 7.2, 50 mM HEPES. On the procedure: (§2) To determine whether these fluorescence changes are associated with binding, affinity was examined by ITC measurement using, in particular, three peptides of Tau210-2202P, Tau204-2163P and Tau204-2162P(i, i+6). ITC measurement was performed under the following conditions: Tau210-2202P, [compound 1]=100 μM and [peptide]=2 mM; Tau204-2163P, [compound 1]=50 μM and [peptide]=1 mM; Tau204-2162P(i, i+6), [compound 1]=100 μM and [peptide]=3.24 mM; the number of titrations, 24; measurement temperature, 25° C.; pH 7.2; and 50 mM HEPES buffer. FIG. 11 illustrates caloric changes when Tau210-2202P was added to compound 1. FIG. 12 illustrates various thermodynamic parameters obtained from the caloric changes in the three different peptides. The caloric changes associated with the dropping of the peptide was an entropy-driven endothermic process (ΔS>0, ΔH>0). This change can be attributed to dehydration of water molecules hydrated to the compound molecules and the phosphorylated peptides along with the binding. The association constants obtained in Tau210-2202P and Tau204-2163P (K=3.33×10^5 M^−1 and K=2.88×10^5 M^−1, respectively) were similar to the values calculated from the fluorescence changes. […] On the other hand, N=0.51 was obtained in Tau204-2162P(i, i+6), and it appears that two compound molecules individually interact with two phosphate groups on the peptide.
In general terms: ITC needs no label: the signal is the heat of the interaction.

The target in experiment [3] is T4, Tau204-2162P(i, i+6) (Homo sapiens, UniProt P10636).
T4 construct: made in house; host or cells: chemical solid-phase synthesis
In words: ITC measurement of affinity, Tau204-2162P(i, i+6). As to conditions: compound 1 100 μM, peptide 3.24 mM, 25° C., pH 7.2. On the procedure:
as §2

Experiment [4] deals with T4, Tau204-2162P(i, i+6). In words: Fluorescence titration of compound 1 with Tau204-2162P (i, i+6). On the procedure:
as §1

The target of experiment [5] is T5, Tau210-2202P (Homo sapiens, UniProt P10636).
T5 construct: made in house; host or cells: chemical solid-phase synthesis
In words: ITC measurement of affinity, Tau210-2202P. The conditions noted are these: compound 1 100 μM, peptide 2 mM, 25° C., pH 7.2, 50 mM HEPES. The protocol: as §2

The subject of experiment [6] is peptides with two phosphate groups positioned with a distance of (i, i+2). Nature of the experiment: Fluorescence titration of compound 1 with (i, i+2) diphosphorylated tau peptides. On the procedure: as §1
The nature of experiment [7]: Fluorescence titration of compound 1 with phenyl phosphate. The protocol:
as §1

Experiment [8] concerns the target T5, Tau210-2202P. In words: Fluorescence spectra titration with Tau210-2202P added dropwise. As to conditions: compound 10 μM, pH 7.2, 50 mM HEPES buffer, 25° C. The protocol:
as §1

For experiment [9], the target named is T3, Tau204-2163P. In words: Fluorescence titration of compound 1 with Tau204-2163P. On the procedure:
as §1

Experiment [10] has as its target T6, phosphorylated tau aggregate (p-Tau) (Homo sapiens, UniProt P10636).
T6 construct: made in house; host or cells: Escherichia coli
In words: Fluorescence staining of phosphorylated tau aggregate prepared in vitro. On the procedure:
(§3) Tau proteins (8 μM) expressed by Escherichia coli and heparin (1.6 μM) were incubated at 37° C. for 20 days to prepare a tau aggregate. A phosphorylated tau aggregate was similarly prepared using tau proteins phosphorylated with GSK-3β in vitro. The results of Pro-Q diamond staining after performing SDS-PAGE confirmed that the in-vitro phosphorylation was performed with a phosphorylation degree of 6 mol P/mol Tau.
(§4) 10 μM BODIPY-Zn(Dpa) or 10 μM thioflavine T (may be referred to as ThT) were added to the prepared tau aggregate or phosphorylated tau aggregate. After the addition, the mixture was washed twice with 0.5 mM Zn(NO3)2, and a suspension (0.5 μL) of the stained phosphorylated tau aggregate was air-dried on a cover glass and observed under a confocal laser scanning microscope (OLYMPUS FV-1000, Obj. lens 100×).

In experiment [11] the target is T7, nonphosphorylated Tau aggregate (n-Tau) (Homo sapiens, UniProt P10636).
T7 construct: made in house; host or cells: Escherichia coli
In words: Fluorescence staining of nonphosphorylated tau aggregate prepared in vitro. The conditions noted are these: 10 μM dye. On the procedure:
as §3, §4

T6 sequence (P10636 1-441 isoform P10636-8): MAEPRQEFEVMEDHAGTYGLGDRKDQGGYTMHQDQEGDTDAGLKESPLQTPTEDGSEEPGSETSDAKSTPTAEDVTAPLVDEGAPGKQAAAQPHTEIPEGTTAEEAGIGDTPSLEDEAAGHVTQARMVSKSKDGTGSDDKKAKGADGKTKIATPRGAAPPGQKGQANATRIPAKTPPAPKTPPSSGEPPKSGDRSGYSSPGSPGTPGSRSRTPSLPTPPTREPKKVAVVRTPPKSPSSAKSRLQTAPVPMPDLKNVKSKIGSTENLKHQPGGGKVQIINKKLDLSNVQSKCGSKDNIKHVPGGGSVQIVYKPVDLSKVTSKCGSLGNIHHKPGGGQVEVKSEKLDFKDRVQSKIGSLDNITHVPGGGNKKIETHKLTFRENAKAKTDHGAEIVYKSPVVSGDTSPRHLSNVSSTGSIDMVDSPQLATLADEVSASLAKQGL
T7 sequence (P10636 1-441 isoform P10636-8): as above

For the compound `CN(Cc1ccccn1)Cc1cc(/C=C/c2ccnc(CN(C)Cc3ccccn3)c2)ccn1.O=[N+]([O-])[O-].O=[N+]([O-])[O-].O=[N+]([O-])[O-].O=[N+]([O-])[O-].[Zn+2].[Zn+2]` [compound 1], the “fluorescence change on dropwise addition of peptide” value is given as “did not show marked fluorescence changes” in experiment [1] ((i, i+4) or (i, i+6) peptides) and “dual wavelength fluorescence changes” in [6] ((i, i+2) peptides, compound 1 10 μM). In experiment [1] (positions (i, i+4) or (i, i+6), summary), the “binding to two phosphate groups” value is listed as “did not bind”. The fluorescence change entry on Tau204-2162P (i, i+4) is “no marked fluorescence change occurred”; at Tau204-2162P(i, i+6) [4], “no marked fluorescence change occurred”; in experiment [7], “no marked fluorescence change”; on Tau204-2163P [9] it was “dual wavelength fluorescence changes occurred”. Moreover, the “association constant K (ITC)” value came out at 288000 M⁻¹ on Tau204-2163P [2] and 333000 M⁻¹ at Tau210-2202P [5]. Also, the “stoichiometry N (ITC)” value on Tau204-2162P(i, i+6) [3] came out at 0.51. Moreover, the “binding constants to the peptides calculated from the fluorescence changes” value in experiment [6] ((i, i+2) peptides) was “approx. 10^5”. For the same compound, in experiment [6] ((i, i+2) phosphate groups on tau sequence, summary), the Ka is recorded as ~10^5 M^−1. The “association constants calculated from the fluorescence changes” value on Tau210-2202P [8] is on record as “approx. 10^5 M^−1”. Besides, the “fluorescence change on dropwise addition of Tau210-2202P” value on Tau210-2202P [8] was “dual wavelength fluorescence changes”.

With `Cc1ccc2c(c1)sc(-c1ccc(N(C)C)cc1)[n+]2C.[Cl-]` [thioflavine T, reference compound], the staining of aggregate entry is “stained the aggregate” in [10] (p-Tau in the presence of pyrophosphoric acid (PPi)); “fluorescence of ThT and that of BODIPY-Zn(Dpa) overlapped” in [10] (p-Tau, 10 μM dye); “is observed” in [11].
